Reference: patent publication US20200148682A1, “AKT ISOZYME-SPECIFIC COVALENT INHIBITORS DERIVED FROM REDOX-SIGNALING LIPIDS” (Cornell University, priority 2017, published 2020)

Assays:
Akt3(C119S) = molecular target: T1, Akt3(C119S) (Homo sapiens, UniProt Q9Y243, C119S); test: AKTAR FRET assay in live HEK293T cells; assay type: cell-based; settings: for Akt3(C119S) activity (FRET) during treatment: 5 μM; for Akt3(C119S) activity (FRET) after drug withdrawal: 24 hours after removal from media
T1 construct: expressed in transfected cells; host or cells: HEK293T
Description: FIGS. 21C-21D: HEK293T cells were transfected with plasmids encoding AKTAR and Halo-Akt3 (1:1). After 12 hours, cells were treated with MK-2206 (5 μM) or MK-HNE (5 μM). After 24 hours and 48 hours Akt3 activity was measured using ratiometric FRET analysis in live cells. After 48 hours, cells were washed two times with drug-free media containing 10% FBS and allowed to recover in 3% FBS MEM media for another 24 hours, after which time Akt3 activity was assayed using FRET again. wd=withdrawal for 24 hours. […] FIG. 21D is a graph showing quantitation of all data sets for treatment of HEK293T cells expressing Halo-Akt3/AKTAR. […] FIG. 21F is a graph showing quantitation of all data sets for treatment of HEK293T cells expressing Halo-Akt2/AKTAR. […] FIG. 21H is a graph showing quantitation of all data sets for treatment of HEK293T cells expressing Halo-Akt3C119S mutant/AKTAR.
HEK293T cells were plated in imaging plates at 60% confluence. After 24 hours, cells in each plate were transfected with 1 μg AktAR reporter plasmid and 1 μg plasmid of the designated HaloTag fusion Akt gene in PCS2+8 vector, using TransIT 2020 (6 μL) (FIG. 21B). 12 hours after transfection, cells were treated with 5 μM inhibitor or the equivalent final volume of DMSO in rinse medium containing 3% FBS and incubated for 24 hours before imaging. FRET imaging was performed using a Zeiss LSM 710 confocal microscope as previously described. Briefly, a 458 nm argon laser was used for excitation. The signals in the cyan channel (463-498 nm) and the yellow channel (525-620 nm) were recorded. Cells were then incubated in drug medium for another 24 hours before next imaging. The medium was aspirated and the cells were gently rinsed with 3% FBS in rinse medium twice every 30 min over the next hour, Fresh rinse medium with 3% FBS was added and the cells were imaged again after 24 hours. For quantification, the mean CFP and YFP signal intensity was measured using Image by drawing a freehand circle around the cells, and the ratio image was calculated. Graphing and data analysis (Student's t-test) were performed using Prism software.
One of the key benefits of covalent inhibition is the ability to uncouple pharmacokinetics from pharmacodynamics. This effect is achieved, because once irreversible inhibition occurs, an irreversible inhibitor will remain bound to its target post clearance of the unbound inhibitor. On the other hand, for a reversible inhibitor, as drug concentration drops, the drug is released from its target and inhibition is lost. This situation can be modeled in cell culture by removal of the drug from the media and measuring changes in activity as a function of time post drug removal. Akt inhibition was assayed using AKTAR (FIG. 21A). This fusion of two fluorescent proteins emits two different frequencies of light when excited with blue light, depending on the activity of Akt. When the construct is selectively phosphorylated by Akt, both blue and green light are emitted, due to fluorescence resonance energy transfer (FRET) from the CFP to the YFP. However, when the protein is not phosphorylated, emission is mainly in the blue channel. Thus the ratio of green to blue emission is a direct readout of Akt activity in live cells.

recombinant Akt3 = molecular target: T2, recombinant Akt3 (Homo sapiens, UniProt Q9Y243); test: NADH-coupled Akt activity assay (progress curve analysis); assay type: biochemical
T2 construct: purchased Active Motif 31147
Excerpt: FIGS. 20A-20H show the kinetic analysis of Akt3 covalent inhibition by MK-HNE, MK-FNE, and MK-dHNE. FIG. 20A is a schematic representation of the NADH-coupled kinetic assay to monitor the progress of Akt-catalyzed phosphorylation of the known peptide substrate, Crosstide (Akt substrate, cat. No. sc-471145, Santa Cruz). […] The solid curves are the best nonlinear fits of the data using EQN. 1. FIG. 20D is a graph showing a replot of kobs for the progress curve as a function of MK-HNE concentration. FIG. 20F is a graph showing a replot of kobs for the progress curve as a function of MK-dHNE concentration. The hyperbolic curve is the best nonlinear fit to EQN. 2. FIG. 20H is a graph showing kobs for the progress curve as a function of MK-FNE concentration fit to a cooperative binding equation using EQN 3. Inhibition of recombinant Akt3 ([…]) by MK-HNE, MK-dHNE, and MK-FNE was assayed by progress curve analysis: inhibitor was added to enzyme in assay buffer containing 100 nM Akt3 kinase, 100 μM Crosstide (Akt substrate, cat. No. sc-471145, Santa Cruz), 500 μM ATP, 4 mM TCEP, 5 mM phosphoenolpyruvate, pyruvate kinase (24-40 units/mL), lactate dehydrogenase (36-56 units/mL), 500 μM NADH and various concentrations of the inhibitor. All curves were background rate subtracted. Product formation was measured continuously for 6 min. Over this time, Akt3 activity was constant in the absence of the inhibitors.
To a 96-well plate with varying amounts of indicated inhibitors was added the kinetic assay mixture containing, in final concentrations, 50 mM HEPES, 100 mM NaCl, 10 mM MgCl2, 5 mM phosphoenolpyruvate, 500 μM NADH, 100 μM crosstide (the Akt substrate, cat. No. sc-471145, Santa Cruz), pyruvate kinase (24-40 units/mL), lactate dehydrogenase (36-56 units/mL), 4 mM TCEP, 500 μM ATP. […] The progress of phosphorylation was monitored by reading absorbance at 340 nm over the course of study. […]
To gain a more quantitative understanding of the covalent inhibitors, inhibition of Akt3 by MK-HNE in vitro was investigated. […] Loss of NADH was measured by decrease in A340 as a function of time. […]

T1 sequence (Q9Y243 whole entry C119S): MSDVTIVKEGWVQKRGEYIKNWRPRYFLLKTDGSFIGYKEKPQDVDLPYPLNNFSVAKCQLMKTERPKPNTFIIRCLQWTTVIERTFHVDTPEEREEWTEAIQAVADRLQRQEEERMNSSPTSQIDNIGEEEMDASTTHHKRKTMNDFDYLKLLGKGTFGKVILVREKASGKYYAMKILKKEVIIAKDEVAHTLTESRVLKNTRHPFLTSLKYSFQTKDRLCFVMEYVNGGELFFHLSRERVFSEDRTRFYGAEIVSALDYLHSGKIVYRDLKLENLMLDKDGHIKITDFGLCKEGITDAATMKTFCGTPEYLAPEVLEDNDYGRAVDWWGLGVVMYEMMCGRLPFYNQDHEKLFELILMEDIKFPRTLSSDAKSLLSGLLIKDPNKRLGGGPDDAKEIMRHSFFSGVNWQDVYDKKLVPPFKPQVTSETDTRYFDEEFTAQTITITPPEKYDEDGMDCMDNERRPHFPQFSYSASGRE
T2 sequence (Q9Y243 whole entry): as the sequence (Q9Y243 whole entry C119S) above, with S119C counted along it

SMILES | Akt3(C119S) activity (FRET) during treatment (Akt3(C119S)) | Akt3(C119S) activity (FRET) after drug withdrawal (Akt3(C119S)) | n (Hill coefficient) (recombinant Akt3; cooperative binding fit of kobs vs concentration) | kinact/KI (recombinant Akt3; recombinant Akt3, as stated in text) [M⁻¹ s⁻¹] | inhibition profile of Akt3 (recombinant Akt3; progress curves)
NC1(c2ccc(-c3nc4ccn5c(=O)[nH]nc5c4cc3-c3ccccc3)cc2)CCC1 [MK-2206] | Akt inhibition was observed | no inhibition was observed |  |  | 
C#CCCCC(F)/C=C/C(=O)NC1(c2ccc(-c3nc4ccn5c(=O)[nH]nc5c4cc3-c3ccccc3)cc2)CCC1.Cl (stereo not shown) [MK-FNE, (E)-8-(4-(1-(4-Fluoronon-2-en-8-ynamido)cyclobutyl)phenyl)-3-oxo-9-phenyl-2,3-dihydro-[1,2,4]triazolo[3,4-f][1,6]naphthyridin-7-ium Chloride] |  |  | 3.2 | ~10000 | 
C#CCCCC(O)/C=C/C(=O)NC1(c2ccc(-c3nc4ccn5c(=O)[nH]nc5c4cc3-c3ccccc3)cc2)CCC1.Cl (stereo not shown) [MK-HNE, (E)-8-(4-(1-(4-Hydroxynon-2-en-8-ynamido)cyclobutyl)phenyl)-3-oxo-9-phenyl-2,3-dihydro-[1,2,4]triazolo[3,4-f][1,6]naphthyridin-7-ium Chloride] | Akt inhibition was observed | no inhibition was observed |  |  | time-dependent inhibitor
